One series concerns TRPV1. Kind of series: Whole cell patch clamp electrophysiology of TRPV1 conductance. The class given is cell-based. The source says: FIG. 25C provides data on the functional effects of terpenes at the nociceptive ion channel TRPV1.
(In patch-clamp work, channel activity is measured electrically.)

For series [1] the following is noted: in vivo; cited from earlier work.

`C=CC(=C)CCC=C(C)C` [myrcene]: the TRPV1 conductance entry in the series with TRPV1 is recorded as “activate TRPV1 conductance”.
Turning to `CN1C[C@H](C(=O)N[C@]2(C)O[C@@]3(O)[C@@H]4CCCN4C(=O)[C@H](Cc4ccccc4)N3C2=O)C=C2c3cccc4[nH]cc(c34)C[C@H]21` [ergotamine], in series [1], the side effects result is “nausea, vomiting and cardiovascular side effects”.
